Assays:
[1] = molecular target: T1, purified bovine PACAP receptor protein (Bos taurus, UniProt Q29627); test: Competitive binding experiment for the purified PACAP receptor protein with [125I]PACAP27; details: vs 100 pM [125I]PACAP27, FIG. 31
T1 construct: from tissue; host or cells: bovine cerebrum
T1 sequence (Q29627 38-513): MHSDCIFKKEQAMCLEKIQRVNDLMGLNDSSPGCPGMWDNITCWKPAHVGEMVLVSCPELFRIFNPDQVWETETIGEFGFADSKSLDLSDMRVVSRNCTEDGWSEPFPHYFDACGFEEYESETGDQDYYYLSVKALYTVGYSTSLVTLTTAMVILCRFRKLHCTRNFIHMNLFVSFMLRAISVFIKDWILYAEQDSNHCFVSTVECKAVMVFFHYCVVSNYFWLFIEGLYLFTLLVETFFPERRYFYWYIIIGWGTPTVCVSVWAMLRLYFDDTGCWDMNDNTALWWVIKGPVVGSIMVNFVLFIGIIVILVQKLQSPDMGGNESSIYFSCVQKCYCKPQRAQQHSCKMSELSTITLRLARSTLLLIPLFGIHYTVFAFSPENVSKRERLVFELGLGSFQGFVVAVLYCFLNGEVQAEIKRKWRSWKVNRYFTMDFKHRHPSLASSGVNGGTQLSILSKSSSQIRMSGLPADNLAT
Procedure: (§1) The test sample (membrane fraction or solubilized membrane protein fraction) was appropriately diluted with buffer D (20 mM Tris, 5 mM magnesium chloride, 0.1% BSA and 0.05% digitonin, pH 7.4). […] To 0.1 ml of this reaction solution, 1.5 ml of buffer E (0.1% BSA, 0.05% CHAPS, 20 mM Tris and 5 mM magnesium chloride, pH 7.4) cooled with ice was added, and immediately, the mixed solution is filtered through a glass fiber filter. […] Results of the saturation binding experiment were subjected to Scatchard plot analysis to determine the dissociation constant and the maximum binding.
Analysis results obtained by polyacrylamide electrophoresis for the final purified sample in the presence of sodium dodecylsulfate are shown in FIG. 28. […] This protein having a molecular weight of about 57,000 is the PACAP receptor protein occurring in the bovine cerebrums.

[2] = molecular target: T2, Bovine PACAP receptor protein (Bos taurus, UniProt Q29627); test: Competitive binding experiment, membrane fraction of bovine PACAP receptor cDNA (pBPR-T)-expressed CHO cells; details: 100 pM [125I]-PACAP27, 25° C., 75 minutes, FIG. 35
T2 construct: The complete primary structure of bovine PACAP receptor protein based on pBPR-T was deduced; expressed in transfected cells; host or cells: CHO cells, pBPR-T in pRc/CMV, G-418 selected
T2 sequence (Q29627 38-513): T1 sequence (Q29627 38-513)
Procedure: The transformants (CHO cells) cultivated for 3 days after subculture were separated using 0.2 mM EDTA/phosphate buffer, and suspended in 10 mM sodium carbonate buffer supplemented with 1 mM EDTA, 0.5 mM phenylmethylsulfonyl fluoride (PMSA), 20 μg/ml leupeptin, 4 μg/ml E-64 and 1 μg/ml pepstatin. The suspended cells were disrupted with a Polytron homogenizer (Kinematica). The disrupted product was centrifuged with a high speed cooling centrifuge (CR26H, Roter RR18, Hitachi, Ltd.) at 3,000 rpm for 10 minutes to obtain a supernatant. The resulting supernatant was further ultracentrifuged with an ultracentrifuge (SCP70H, Roter RPZ35T, Hitachi, Ltd.) at 30,000 rpm for 60 minutes to obtain pellets. The resulting pellets were suspended in a buffer [20 mM Tris-HCl (pH 7.4), 0.25 M sucrose, 2 mM EDTa, 0.5 mM PMSF, 20 μg/ml leupeptin and 1 μg/ml pepstatin] to prepare a membrane fraction suspension.
Bound ligands were separated from free ligands through a glass fiber filter. […] The binding was examined with a a γ-ray counter. The dissociation constant and the maximum binding were examined by Scatchard plot analysis (FIG. 34).

[3] = molecular target: T2, Bovine PACAP receptor protein; test: Intracellular cyclic AMP production of bovine PACAP receptor cDNA-expressed CHO cells; format: cell-based; details: 37° C., 30 minutes, 0.2 mM 3-isobutyl-1-methylxanthine, FIG. 36
Procedure: Three days after the transformants (CHO cells) were plated on a 24-well plate, the cells were washed with Hank's buffer (composition: 8 g/l NaCl, 0.4 g/l KCl, 0.06 g/l Na2HPO4, 1.0 g/l glucose, 0.2 g/l MgSO4, 0.14 g/l CaCl2 and 0.35 g/l NaHCO3) supplemented with 0.05% BSA, and treated in the presence of 0.2 mM 3-isobutyl-1-methylxanthine at 37° C. for 1 hour. […] After the cells were washed with the above-mentioned Hank's buffer supplemented with 0.05% BSA, intracellular cyclic AMP was extracted by the use of 500 μl of Hank's buffer and 100 μl of 20% perchloric acid, and neutralized with 1.5 M KOH. The amount of cyclic AMP was assayed with a cAMP oxygen immunoassay system (BIOTRAK Amersham).

[4] = molecular target: T2, Bovine PACAP receptor protein; test: Intracellular inositol phosphate of bovine PACAP receptor cDNA-expressed CHO cells; format: cell-based; details: 37° C., 20 minutes, FIG. 37
Procedure: The pathway of signal transmission of inositol phosphate well known as the pathway of signal transmission together with cyclic AMP was examined. […] One hundred microliters of 20% perchloric acid was added thereto to stop the reaction, and intracellular inositol phosphate was extracted. The extract was neutralized with 1.5 M KOH. All inositol phosphate was separated from free inositol by the use of ion exchange chromatography (AGI-X8, Bio RAD). Thereafter, inositol phosphate was eluted with 1 M ammonium formate/0.1 M formic acid, and the amount of inositol phosphate was measured with a scintillation counter.

[5] = molecular target: T3, human PACAP receptor protein (Homo sapiens, UniProt P41586); test: Competitive inhibition experiment, membrane fraction of human PACAP receptor-expressed CHO-K1 cells; format: binding; details: FIG. 47
T3 construct: expressed in transfected cells; host or cells: CHO-K1 cells (ICN), pTS849 (pRc/CMV), G-418 selected
T3 sequence (P41586 21-468): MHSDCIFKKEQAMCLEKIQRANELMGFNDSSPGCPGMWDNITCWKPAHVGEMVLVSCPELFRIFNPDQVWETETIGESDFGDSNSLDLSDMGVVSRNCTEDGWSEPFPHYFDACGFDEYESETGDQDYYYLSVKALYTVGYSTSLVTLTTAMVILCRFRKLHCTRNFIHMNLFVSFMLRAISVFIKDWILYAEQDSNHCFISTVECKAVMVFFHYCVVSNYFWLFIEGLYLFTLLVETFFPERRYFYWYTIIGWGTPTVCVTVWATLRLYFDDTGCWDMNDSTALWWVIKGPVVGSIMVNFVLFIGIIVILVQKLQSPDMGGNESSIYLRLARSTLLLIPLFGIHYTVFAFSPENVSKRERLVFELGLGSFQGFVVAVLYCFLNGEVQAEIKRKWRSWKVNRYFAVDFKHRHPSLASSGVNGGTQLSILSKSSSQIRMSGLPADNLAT
Procedure: as §1

[6] = molecular target: T3, human PACAP receptor protein; test: Intracellular cyclic AMP of human PACAP receptor protein-expressed CHO-K1 cells; format: cell-based; details: 37° C., 30 minutes, 0.2 mM 3-isobutyl-1-methylxanthine, FIG. 48
Procedure: After washing twice with Hank's buffer containing the culture buffer, 10 mM HEPES and 0.05% BSA, the CHO-K1 cells were cultivated in the above-mentioned buffer supplemented with 0.2 mM 3-isobutyl-1-methylxanthine at 37° C. for 60 minutes. […] After absorption of the buffer, the cells were washed twice with the culture buffer. Then, cAMP was extracted from the cells with 20% perchloric acid. After transfer to a 1.5-ml Eppendorf tube, the extract was centrifuged with a Tomy microcentrifuge at 12,000 rpm for 5 minutes, and the supernatant was neutralized with 1.5 N KOH/60 mM HEPES to prepare a cell eluted solution. The concentration of cyclic AMP was determined by the acetylation method of a cAMP assay system (Amersham). Under these determination conditions, when nothing was added, the amount of intracellular CAMP was 0.7 pmole/well.

PACAP receptor = details: unlabeled peptide, tissue membrane fraction; cited from earlier work
[7] = molecular target: T4, rat PACAP receptor protein Type I-A (pRPR3-A) (Rattus norvegicus, UniProt P32215); test: Competitive binding with [125I]-PACAP27, membrane fraction of pRPR3-A-introduced CHO cells; details: 100 pM [125I]-PACAP27, 25° C., 1 hour, FIG. 40 (A)
T4 construct: pRPACAPR46 and pRPACAPR5 were recombined at the BamHI site to prepare pRPACAPR46-5 having a complete translation frame; expressed in transfected cells; host or cells: CHO cells, pRPR3-A (pRc/CMV); clone A12 for cAMP
T4 sequence (P32215 20-467 isoform P32215-5 limits assumed): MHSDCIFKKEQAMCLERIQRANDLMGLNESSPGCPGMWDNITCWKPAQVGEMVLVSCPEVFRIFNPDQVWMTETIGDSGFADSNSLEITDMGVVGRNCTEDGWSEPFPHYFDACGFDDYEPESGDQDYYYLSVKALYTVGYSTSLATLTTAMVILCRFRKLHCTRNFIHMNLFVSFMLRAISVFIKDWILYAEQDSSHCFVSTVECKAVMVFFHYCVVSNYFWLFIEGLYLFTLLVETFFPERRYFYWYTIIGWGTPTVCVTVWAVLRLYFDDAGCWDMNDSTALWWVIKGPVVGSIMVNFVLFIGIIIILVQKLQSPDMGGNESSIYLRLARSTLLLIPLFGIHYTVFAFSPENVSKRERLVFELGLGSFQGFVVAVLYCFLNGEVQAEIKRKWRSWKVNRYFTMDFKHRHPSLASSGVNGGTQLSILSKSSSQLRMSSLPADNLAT
Procedure: (§2) The pRPR3-A-introduced and pRPR4-B-introduced CHO cells obtained in (2) described above were each disrupted in sodium carbonate buffer containing 1 mM EDTA, 0.5 mM PMSF, 20 μg/ml leupeptin, 4 μg/ml E-64 and 1 μg/ml pepstatin with a Polytron homogenizer (Kinematica) to prepare membrane fractions. Using the membrane fractions, complex binding experiments were conducted. For each of the membrane fractions of the pRPR3-A-introduced CHO cells and the pRPR4-B-introduced CHO cells, each of 10 μg and 15 μg (converted to a protein amount) thereof was ligated with. […] The reaction was conducted at 25° C. for 1 hour, and bound ligands were separated from free ligands by filtration through a filter. […] The amount of bound ligands was measured with a γ-counter.

[8] = molecular target: T5, rat PACAP receptor protein Type I-B (pRPR4-B) (Rattus norvegicus, UniProt P32215); test: Competitive binding with [125I]-PACAP27, membrane fraction of pRPR4-B-introduced CHO cells; details: 100 pM [125I]-PACAP27, 25° C., 1 hour, FIG. 40 (B)
T5 construct: two kinds of complete primary structures of rat PACAP receptor protein were deduced; expressed in transfected cells; host or cells: CHO cells, pRPR4-B (pRc/CMV); clone B17 for cAMP
T5 sequence (P32215 20-495 isoform P32215-2 limits assumed): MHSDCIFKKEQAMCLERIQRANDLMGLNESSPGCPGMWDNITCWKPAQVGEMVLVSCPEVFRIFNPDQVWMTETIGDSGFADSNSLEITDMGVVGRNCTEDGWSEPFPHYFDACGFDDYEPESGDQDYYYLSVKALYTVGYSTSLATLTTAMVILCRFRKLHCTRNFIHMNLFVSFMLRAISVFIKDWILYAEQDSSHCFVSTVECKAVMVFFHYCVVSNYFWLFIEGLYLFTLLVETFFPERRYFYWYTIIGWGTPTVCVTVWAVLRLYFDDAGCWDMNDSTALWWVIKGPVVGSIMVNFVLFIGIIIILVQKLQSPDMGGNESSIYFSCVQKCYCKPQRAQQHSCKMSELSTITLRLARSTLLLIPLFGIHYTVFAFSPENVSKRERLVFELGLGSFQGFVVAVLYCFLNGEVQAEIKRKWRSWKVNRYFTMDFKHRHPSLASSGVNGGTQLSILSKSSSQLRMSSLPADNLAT
Procedure: as §2

[9] = molecular target: T4, rat PACAP receptor protein Type I-A (pRPR3-A); test: Intracellular cyclic AMP of rat PACAP receptor cDNA-introduced CHO cells, strain A12; format: cell-based; details: CHO strain A12, 37° C., 40 minutes, 0.5 mM IBMX, FIG. 43
Procedure: (§3) Each 48-well plate for tissue culture was inoculated with each of the cell strains. at a density of 1.0×10^5 cells/well, followed by cultivation for 3 days. The plate was washed twice with Ham's F12 medium supplemented with 0.1% BSA and 0.5 mM IBMX, and 500 μl/well of the same medium was added thereto. […] The supernatant was removed, and extraction was conducted with 100% cold ethanol. The extract was evaporated to dryness with a centrifugal freeze dryer, and redissolved in the buffer attached to an EIA kit for assaying cyclic AMP (Amersham). Then, the amount of cyclic AMP was assayed according to the formulation of the kit.

[10] = molecular target: T5, rat PACAP receptor protein Type I-B (pRPR4-B); test: Intracellular cyclic AMP of rat PACAP receptor cDNA-introduced CHO cells, strain B17; format: cell-based; details: CHO strain B17, 37° C., 40 minutes, 0.5 mM IBMX, FIG. 43
Procedure: as §3

| Substance | reaction with purified PACAP receptor protein in competitive binding experiment [1] | reactivity (competition with [125I]-PACAP27) [2] | concentration of intracellular cyclic AMP [3] | concentration of inositol phosphate [4] | competition with [125I]-PACAP27 [5] | concentration of intracellular cAMP [6] | inhibition of [125I]PACAP27 binding to the membrane fraction (PACAP receptor) | competition with [125I]-PACAP27 [7] | competition with [125I]-PACAP27 [8] | production of intracellular cyclic AMP [9] | production of intracellular cyclic AMP [10] | weakness relative to PACAP27 in competitive inhibition [5] |
| --- | --- | --- | --- | --- | --- | --- | --- | --- | --- | --- | --- | --- |
| PACAP27 | reacting | high reactivity | increased depending on the concentrations | increased depending on the concentrations | competed | increased depending on the concentrations | inhibited | – | – | – | – | – |
| PACAP38: pituitary adenylate cyclase activating polypeptide consisting of 38 amino acid residues, SEQ ID NO: 46-NH2 | – | – | – | – | – | – | inhibited | – | – | – | – | – |
| Vasoactive intestinal peptide [VIP] | not reacting | low in reactivity | – | – | – | little raised | not inhibited | competition was observed only at a concentration much higher than that of PACAP27 | competition was observed only at a concentration much higher than that of PACAP27 | a concentration much higher than that of the PACAPs was required | a concentration much higher than that of the PACAPs was required | 1,000 times |
